# Data published in patent publication US4312883A, “Furocoumarin for the photochemotherapy of psoriasis and related skin diseases” (Consiglio Nazionale delle Ricerche, priority 1979, dated 1982).
# Columns and labels:
# DNA [1] = experiment: Dark complex formation (intercalation) with DNA in the ground state, binding parameters; set-up: K (association constants) of the complexes with DNA: unit not given here; settings: for K (association constants) of the complexes with DNA / 1/n (frequency of binding sites): in vitro, ground state; for K (association constants) of the complexes with DNA: McGhee and Von Hippel method; for 1/n (frequency of binding sites): molecules bound per nucleotide; for 1/n (frequency of binding sites), relative / K (association constants), relative: relative (ang = 100)
# Source text: Dark complex formation: It is known from F. Dall'Acqua, et al. Chem.-Biol. Interactions 21,103 (1978) that the intercalated complex formed by furocoumarins with DNA strongly affects the successive photoaddition increasing the rate of photobinding. […] These parameters have been determined according to the method of McChee and Von Hippel, J.Mol.Biol, 86, 469 (1974).
# (a) Determined according to Mc Ghee and Von Hippel, J. Mol. Biol.,
# epidermal DNA synthesis [2] = experiment: Inhibition of the synthesis of epidermal DNA of the mouse in vivo after oral administration and UV-A irradiation; settings: oral 0.25 g/Kg, UV-A 9 J/cm^2 after two hours
# Source text: Considering that the topical skin tests carried out on mice to evaluate the effectiveness of these substances has yielded data which correlate well with the clinical data, such a test conveniently modified has been adopted to evaluate the effectiveness of the alkylangelicins after oral administration followed by UV-A irradiation.
# In this connection experiments have been conducted using mice 20±2 g in weight, that were starved for three hours before oral administration of the alkylangelicins. Groups of 5 mice were fed a suspension of 0.5% methylcellulose in water containing the alkylangelicins of the invention at a dosage of 0.25 g/Kg. The animals were kept in the dark for two hours, that is for the time necessary for absorption, systemic distribution and localization of the drug at the level of the skin. The animals were then irradiated with UV-A light, 9 J/cm^2. Later the animals were sacrificed and the inhibition of the epidermal DNA synthesis was tested; the results obtained are reported in Table VI. The skin on the back, protected from light by a dark paper, was assumed as a control. As a reference 8-MOP, used under the same experimental conditions, was also tested. The significant activity of the alkylangelicins according to the present invention, higher than that of 8-MOP, in inhibiting the epidermal DNA synthesis in mice upon oral administration allows one to consider these compounds as also being effective for oral administration to humans for photochemotherapy of psoriasis and of other skin diseases that are characterized by cellular hyperproliferation.
# epidermal DNA synthesis [3] = experiment: Inhibition of epidermal DNA synthesis in the mouse in vivo after topical application and UV-A irradiation; settings: light or radiation study, 0.01% methanol solutions, UV-A 9 J/cm^2, read-out: Percent inhibition ± standard error of epidermal DNA synthesis
# Method: DNA samples were dissolved in water and their specific radioactivity determined.
# Each drug substance was studied using at least six mice.
# DNA [4] = experiment: Capacity to form inter-strand cross-linkages in DNA; type: biochemical; settings: (psr = 100)
# Method: All these compounds were not suitable to photoinduce in DNA inter-strand cross-linkages. […] These tests were carried out according to the method of F. Bordin et al., Photochem. Photobiol., 29,1063 (1979).
# DNA [5] = experiment: Photobinding to DNA, rate constants of the photoreactions; type: biochemical; settings: for Rate constants of the photoreactions with DNA: in vitro, UV-A irradiated; for Rate constants of the photoreactions with DNA, relative: relative (ang = 100)
# Source text: (b) Determined according to F. Dall'Acqua, S. Marciani, F. Zambon and G.
# Rodighiero, Photochem. Photobiol., 29,489(1979).
# Photobinding capacity to DNA: The introduction of one or two methyl groups in the molecule of angelicin leads to a strong increase of the photobinding to DNA; see Table II. […] Photobiol., 29, 489 (1979).
# [6] = tested on: RNA synthesis in Ehrlich ascites tumor cells; experiment: Inhibition of RNA synthesis on irradiation at 365 nm; type: cell-based; settings: relative (ang = 100)
# Source text: (§1) Photobiological activity: A significant test for assessing photobiological activity of alkylangelicins is the study of their capacity to inhibit DNA and RNA synthesis in Ehrlich ascites tumor cells. In Table III the capacity of inhibition is expressed as ID50, that is the irradiation does, in terms of quanta at 365 nm, necessary to inhibit in these cells the 50% of the DNA and RNA synthesis in the presence of a constant amount of alkylangelicin. […] Moreover, in general it can be observed that in this simple biological system a close correlation exists between photobiological activity and the capacity to induce photochemical lesions in DNA, that is photoreactivity.
# [7] = tested on: DNA synthesis in Ehrlich ascites tumor cells; experiment: Inhibition of DNA synthesis (and DNA and RNA synthesis) on irradiation at 365 nm; type: cell-based; settings: for inhibition of DNA synthesis, relative: relative (ang = 100)
# Source text: as §1
# skin = experiment: Relative skin phototoxicity; settings: (psr = 100)
# psoriasis = experiment: Topical photochemotherapy of psoriasis in patients; type: in vivo, human; settings: for No. of patients with Excellent result / No. of patients with Fair result / No. of patients with Good result / No. of patients with Poor result: topical 0.1% w/v + UV-A; for No. of patients with Excellent result: Excellent = 90% clearance; for No. of patients with Fair result: Fair = 50-70%; for No. of patients with Good result: Good = 70-90%; for No. of patients with Poor result: Poor 40%
# Source text: Clinical data: The effectiveness of certain representative alkylangelicins according to the present invention, specifically 5-methylangelicin, 4,5'-dimethylangelicin, 4'-hydroxymethyl-4,5'-dimethylangelicin, 4'-hydroxymethyl-4,5'-dimethylangelicin and 4,5-dimethylangelicin, has been tested by measuring their capacity to resolve psoriasis in various patients. For a direct comparison the efficacy of the parent unsubstituted angelicin and that of three very effective linear furocoumarins, that is 8-methoxypsoralen (8-MOP), 5-methoxypsoralen (5-MOP), and 4,5',8-trimethylpsoralen (TMP) were also tested.
# In each treatment four areas of the affected skin were used;
# (a) In the first area an alcohol lotion, containing 10% glycerine, of the tested compound (0.1% w/v) was applied until a concentration of […] was reached then left to evaporate by the heat of the body. After half an hour the area was irradiated with high intensity UV-A emitting low pressure mercury fluorescent lamps with a wavelength of 320-400 nm. The irradiation doses were selected in the range of 4.5-13 J/cm^2 for each application as a function of the sensitivity of the skin of the patients; when the skin sensitivity was higher, the light doses were lower and vice versa.
# (b) A second area was treated with an alcohol solution of the drug as in (a) but it was covered and maintained in the dark.
# (c) A third area, where the drug was not applied, was irradiated as in (a) but in general with higher UV-A doses.
# (d) A fourth area was not treated at all, neither with the drug, not with UV-A.
# The treatment with the alkylangenlicins referred to above was repeated 5 time a week for two or more weeks; the total number of treatments was between 8 and 20 per subject. In some cases, as for instance with 5-methylangelicin, a good clearing of psoriasis was observed after 8 treatments.
# In order to avoid induction of photosensitization processes such as redness and erythema in the reference tests made with the linear furocoumarins 8-MOP, 5-MOP, TMP, lower light doses were used than in the case of alkylangelicins, the treatments were repeated at a frequency of no more than three times a week.
Molecule,increase of K (affinity towards DNA) (DNA [1]; on introduction of a cationic moiety in addition to the two methyl groups),Percent inhibition ± standard error of epidermal DNA synthesis (epidermal DNA synthesis [2]) [%],inhibition in vivo at 0.01 % (epidermal DNA synthesis [3]) [%],capacity to form interstrand cross-linkages (DNA [4]),Rate constants of the photoreactions with DNA (DNA [5]) [K × 10^-2 × min^-1],"inhibition of RNA synthesis, relative [6]","inhibition of DNA synthesis, relative [7]",Relative skin phototoxicity (skin),K (association constants) of the complexes with DNA (DNA [1]),1/n (frequency of binding sites) (DNA [1]),"1/n (frequency of binding sites), relative (DNA [1])","K (association constants), relative (DNA [1])",No. of patients with Excellent result (psoriasis) [patients],No. of patients with Fair result (psoriasis) [patients],No. of patients with Good result (psoriasis) [patients],No. of patients with Poor result (psoriasis) [patients],"Rate constants of the photoreactions with DNA, relative (DNA [5])",photobinding capacity to DNA (in words) (DNA [5]; versus angelicin),"capacity to inhibit the DNA and RNA synthesis (in words) ([7]; Ehrlich ascites tumor cells, versus angelicin)",efficacy in psoriasis patients (in words) (psoriasis; topical + UV-A)
"4'-aminomethoxymethyl-4,5'-dimethylangelicin",more than 20 times,–,–,–,–,–,–,–,–,–,–,–,–,–,–,–,–,–,–,–
"CC(=O)OCc1c(C)oc2ccc3c(C)cc(=O)oc3c12 [4'-acetoxymethyl-4,5'-dimethylangelicin, 4,5'-dimethyl-4'-acetoxymethylangelicin]",–,64.8 ± 13.9,10.6 ± 4.5,–,–,–,–,–,–,–,–,–,–,–,–,–,–,–,–,–
"Cc1oc2ccc3c(C)cc(=O)oc3c2c1CO [4'-hydroxymethyl-4,5'-dimethylangelicin, 4,5'-dimethyl-4'-hydroxy-methylangelicin]",–,54.2 ± 6.8,–,0,3.2,169,272,0,1250,0.087,138,223,0,2,1,1,–,–,–,–
"COCc1c(C)oc2ccc3c(C)cc(=O)oc3c12 [4'-methoxymethyl-4,5'-dimethylangelicin, 4,5'-dimethyl-4'-methoxymethylangelicin]",–,–,–,0,1.6,169,110,0,700,0.050,80,125,–,–,–,–,145,–,–,–
"Cc1cc2c(cc(C)c3c(C)cc(=O)oc32)o1 [4,5,5'-trimethylangelicin]",–,–,–,–,–,–,–,–,–,–,–,–,–,–,–,–,–,close to that of angelicin,lower than that of angelicin,–
"Cc1cc(=O)oc2c1c(C)cc1occc12 [4,5-dimethylangelicin]",–,55.0 ± 6.0,36 ± 1.1,–,–,–,–,–,–,–,–,–,0,0,0,2,–,–,–,equal to angelicin
Cc1cc(=O)oc2c1ccc1occc12 [4-methylangelicin],–,–,68.5 ± 19.5,0,1.61,129,104,0,1400,0.076,120,250,–,–,–,–,146,–,–,–
"Cc1cc2c(ccc3ccc(=O)oc32)o1 [5'-methylangelicin, 5'methylangelicin]",–,–,–,0,2.11,134,150,0,1200,0.073,116,214,–,–,–,–,191,–,–,–
"Cc1cc2c(cc(C)c3ccc(=O)oc32)o1 [5,5'-dimethylangelicin]",–,–,48.3 ± 2.9,0,2.73,355,180,0,1750,0.085,135,312,–,–,–,–,248,–,–,–
